Converted amounts (≈) assume the structure as drawn.
Legend:
Assay type in all cases: cell-based
[1] = tested on: S. aureus SR3637 (H-MRSA); experiment: MIC by agar dilution method, S. aureus SR3637 (H-MRSA); conditions: Methicillin High-Resistant Staphylococcus Aureus; for MIC: MRSA, read-out: MIC (minimum inhibitory concentration) S. aureus SR3637 (H-MRSA)
Procedure: (§1) The MIC (minimum inhibitory concentration) value of the invention compounds against various bacterial was determined by the usual agar dilution method.

[2] = tested on: S. epidermidis SR25009 (MRSE); experiment: MIC by agar dilution method, S. epidermidis SR25009 (MRSE); conditions: Methicillin High-Resistant Staphylococcus Epidermidis; for MIC: MRSE, read-out: MIC (minimum inhibitory concentration) S. epidermidis SR25009 (MRSE)
Procedure: as §1

[3] = tested on: E. cloacae SR4321 (Bla++); experiment: MIC by agar dilution method, E. cloacae SR4321 (Bla++); conditions: AmpC High-Production Cephem Resistant Strain; for MIC: Enterobacter cloacae, read-out: MIC (minimum inhibitory concentration) E. cloacae SR4321 (Bla++)
Procedure: as §1

[4] = tested on: P. aeruginosa SR24-12; experiment: MIC by agar dilution method, P. aeruginosa SR24-12; conditions: for MIC: Pseudomonas aeruginosa, SR2412, AmpC High-Production Cephem Resistant Strain, read-out: MIC (minimum inhibitory concentration) P. aeruginosa SR24-12
Procedure: as §1

Row | Structure (SMILES) | MIC [1] [µg/mL] | MIC [2] [µg/mL] | MIC [3] [µg/mL] | MIC [4] [µg/mL] | MIC (minimum inhibitory concentration) S. aureus SR3637 (H-MRSA) [1] [µg/mL] | MIC (minimum inhibitory concentration) S. epidermidis SR25009 (MRSE) [2] [µg/mL] | MIC (minimum inhibitory concentration) E. cloacae SR4321 (Bla++) [3] [µg/mL] | MIC (minimum inhibitory concentration) P. aeruginosa SR24-12 ([4]; AmpC High-Production Cephem Resistant Strain) [µg/mL]
1 | CC(C)(O/N=C(\C(=O)N[C@@H]1C(=O)N2C(C(=O)[O-])=C(C[n+]3ccccc3)CS[C@H]12)c1csc(N)n1)C(=O)O [Ref. 1, Ceftazidime, reference compound] |  |  |  |  | >128 | >128 | 64 (≈ 117 µM) | 64 (≈ 117 µM)
2 | C[C@H](N)Cn1c(N)nc2c1ccc[n+]2CC1=C(C(=O)[O-])N2C(=O)C(NC(=O)/C(=N\O[C@@H](C)C(=O)O)c3nc(N)sc3Cl)C2SC1 (stereo partly drawn) [Ex. 98] | 8 (≈ 11.8 µM) | 8 (≈ 11.8 µM) | 2 (≈ 2.94 µM) | 2 (≈ 2.94 µM) |  |  |  | 
3 | C[C@H](O/N=C(\C(=O)N[C@@H]1C(=O)N2C(C(=O)[O-])=C(C[n+]3ccc(NC4CCNC4)cc3)CS[C@H]12)c1nc(N)sc1Cl)C(=O)O (stereo partly drawn) [Ex. 132] | 16 (≈ 24.6 µM) | 8 (≈ 12.3 µM) | 4 (≈ 6.14 µM) | 4 (≈ 6.14 µM) |  |  |  | 
4 | CNCCNc1cc[n+](CC2=C(C(=O)[O-])N3C(=O)[C@@H](NC(=O)/C(=N\O[C@@H](C)C(=O)O)c4nc(N)sc4Cl)[C@H]3SC2)cc1 [Ex. 124] | 16 (≈ 25 µM) | 8 (≈ 12.5 µM) | 4 (≈ 6.26 µM) | 4 (≈ 6.26 µM) |  |  |  | 

Results, then the molecule that gave them:

Row | MIC [1] [µg/mL] | MIC [2] [µg/mL] | MIC [3] [µg/mL] | MIC [4] [µg/mL] | MIC (minimum inhibitory concentration) S. aureus SR3637 (H-MRSA) [1] [µg/mL] | MIC (minimum inhibitory concentration) S. epidermidis SR25009 (MRSE) [2] [µg/mL] | MIC (minimum inhibitory concentration) E. cloacae SR4321 (Bla++) [3] [µg/mL] | MIC (minimum inhibitory concentration) P. aeruginosa SR24-12 ([4]; AmpC High-Production Cephem Resistant Strain) [µg/mL] | Structure (SMILES)
5 | 32 (≈ 47.3 µM) | 32 (≈ 47.3 µM) | 4 (≈ 5.91 µM) | 4 (≈ 5.91 µM) |  |  |  |  | CNCCCn1ccc2c1ccc[n+]2CC1=C(C(=O)[O-])N2C(=O)C(NC(=O)/C(=N\O[C@H](C)C(=O)O)c3nc(N)sc3Cl)C2SC1 (stereo partly drawn) [Ex. 8]
6 | 16 (≈ 23.7 µM) | 8 (≈ 11.8 µM) | 1 (≈ 1.48 µM) | 8 (≈ 11.8 µM) |  |  |  |  | C=C(O/N=C(\C(=O)NC1C(=O)N2C(C(=O)[O-])=C(C[n+]3cccc4c3ccn4CCCNC)CSC12)c1nc(N)sc1Cl)C(=O)O (stereo not drawn) [Ex. 19]
7 | 32 (≈ 55.1 µM) | 32 (≈ 55.1 µM) | 16 (≈ 27.5 µM) | 8 (≈ 13.8 µM) |  |  |  |  | CC(C)(O/N=C(\C(=O)NC1C(=O)N2C(C(=O)[O-])=C(C[n+]3ccccc3)CSC12)c1nc(N)sc1Cl)C(=O)O (stereo not drawn) [Ex. 3]
8 | 16 (≈ 21.7 µM) | 16 (≈ 21.7 µM) | 8 (≈ 10.9 µM) | 4 (≈ 5.44 µM) |  |  |  |  | CNCCCn1ccc2c1ccc[n+]2CC1=C(C(=O)[O-])N2C(=O)C(NC(=O)/C(=N\OC(C)(C)C(=O)O)c3nc(N)sc3Br)C2SC1 (stereo not drawn) [Ex. 20]
9 | 8 (≈ 11.5 µM) | 8 (≈ 11.5 µM) | 2 (≈ 2.89 µM) | 4 (≈ 5.77 µM) |  |  |  |  | CNCCCn1c(N)nc2c1ccc[n+]2CC1=C(C(=O)[O-])N2C(=O)[C@@H](NC(=O)/C(=N\O[C@@H](C)C(=O)O)c3nc(N)sc3Cl)C2SC1 (stereo partly drawn) [Ex. 79]

From patent US7696354B2, “Cephem compounds having broad antibacterial spectrum” (Shionogi & Co., Ltd., priority 2002, dated 2010)
